# Measured values as given in patent US8828992B2, “Substituted azole derivatives, pharmaceutical composition containing the derivatives, and method for treating Parkinson's disease using the same” (priority 2009, dated 2014).
# Like-named read-outs stand apart in the source and are kept apart here.
# Columns and labels:
# [1] = system: dopamine (DA) in the striatum of a MPTP-treated mouse; experiment: Combined administration with Levodopa group: dopamine in the striatum of MPTP-treated mouse (HPLC); assay type: in vivo; conditions: compound 1 mg/kg PO co-administered with Levodopa group (Levodopa 50 mg/kg + Benzerazide 25 mg/kg IP); for Concentration of dopamine compared to a control group %, 1 hr: 1 hr after Levodopa; for Concentration of dopamine compared to a control group %, 3 hr: 3 hr after Levodopa
# Description: MPTP (20 mg/kg, free base; Sigma, St. louis, Mo.) was administered to an 8 week old (20-25 g) male C57BL/6 test mouse intraperitoneally at the interval of 2 hours to construct a model.
# In order to observe the effects of combined administration of a compound of the present invention and Levodopa, the compound of the present invention was dissolved in a solution containing 0.02 ml of dimethylsulfoxide (DMSO), 0.02 ml of Cremophor, 0.08 ml of polyethyleneglycol (PEG), and 0.08 ml of physiological saline. The resulting solution was orally administered at doses of 1 mg/kg one week after the MPTP treatment, and a Levodopa group containing Levodopa at 50 mg/kg and Benzerazide at 25 mg/kg was intraperitoneally administered 1 hour later.
# A single administration of the Levodopa group in the following Table 4 indicates values resulting from a MPTP (toxin) treatment followed by an administration of the Levodopa group compared to the treatment results of a Levodopa single administration group of Levodopa and Benzerazide.
# At 1 hour and 3 hours after administration of Levodopa, the animals were sacrificed by cervical vertebra dislocation and the brain tissues were immediately isolated from the animals. 0.5 me of iced solution for HPLC analysis (0.1 M perchloric acid and 0.1 mM EDTA) was added to a striatum obtained from the isolated brain tissues, and an ultrasonic grinder was used to prepare a tissue homogenate. The tissue homogenate was centrifuged at 12,000 rpm for 15 minutes, and its supernatant was filtered through nitrocellulose membrane filter (0.2 um, Millipore). For HPLC analysis, uBondapak™ C18 column (4.6×150 mm, particle size 10 μm: Shisheido, Japan) was used, the flow rate of the mobile phase (0.07 M monobasic sodium phosphate, 1 mM sodium octasulfonic acid, 0.1 uM EDTA, 5% acetonitrile, pH 3.2) was maintained at 0.5 me/min, and the electrode potential of the electrochemical detector (CouloChem III, ESA, Japan) was set at 350 mV.
# MPTP-induced mouse model = experiment: Tail suspension test in MPTP-induced mouse model of Parkinson's disease; assay type: in vivo; conditions: administration concentration 10 (10 mg/kg), oral, 7 days after MPTP, % of control group (Sham); for response vs control in vivo at 10 mg/kg: Mus musculus, 168 h, read-out: Mobility (%)
# Description: A. MPTP (1-methyl-4-phenyl-1,2,3,6-tetrahydropyridine) and drug treatment MPTP (20 mg/kg, free base; Sigma, St. louis, Mo.) was administered to an 8 week old (20-25 g) male C57BL/6 test mouse intraperitoneally three times a day at the interval of 2 hours to construct a model (Breidert et al., 2002; Lichuan Yang, Shuei Sugama, Jason W. Chirichigno, Jason Gregorio, Stefan Lorenzl, Dong H. Shin, Susan E. Browne, Yoshinori Shimizu, Tong H. Joh, M. Flint Beal, l and David S. Alber. (2003) Minocycline Enhances MPTP Toxicity to Dopaminergic Neurons. J Neurosci Res. 74:278-285). In order to observe the protective effects of the compound as a candidate drug, the compound was dissolved in a solution containing 10% dimethylsulfoxide (DMSO), 10% Cremophor, and 40% polyethyleneglycol (PEG), […] treatment. Rasagiline as a control drug was also dissolved in the same solution, and the resulting solution was administered at the same doses in the same manner as above. A control group (Sham) in which MPTP was not administered was constructed by intraperitoneally administering saline solution to the group instead of MPTP in the same manner as above and orally administering the same solution 1 hour before and after PBS treatment.
# A tail suspension test was performed in order to measure the induction degree of behavioral dysfunctions in accordance with administration of MPTP and a drug. At 7 days after administration of the drug, a round stainless steel rod (width: 1 cm) was affixed to a cage (width: 16 cm, height: 40 cm) 35 cm above from the surface shielded by black wooden structures in the left and right sides to perform experiments. The time for which the animal moved for a total period of 6 minutes was measured in seconds to evaluate the drug action.
# Mobility refers to an expression of the measurement of the time for which the animal moved with its tail hung high as a percentage compared to the measurement of a control group.
# [2] = target: T1, Monoamineoxidase B type human-derived enzyme (Homo sapiens, UniProt P27338); experiment: Inhibitory effects on the activity of MAO-B (Amplex Red fluorescence, benzylamine substrate); assay type: biochemical; conditions: for inhibition at 0.01 µM: read-out: Inhibitory effects (%) on the activity of MAO-B
# T1 sequence (P27338 1-520): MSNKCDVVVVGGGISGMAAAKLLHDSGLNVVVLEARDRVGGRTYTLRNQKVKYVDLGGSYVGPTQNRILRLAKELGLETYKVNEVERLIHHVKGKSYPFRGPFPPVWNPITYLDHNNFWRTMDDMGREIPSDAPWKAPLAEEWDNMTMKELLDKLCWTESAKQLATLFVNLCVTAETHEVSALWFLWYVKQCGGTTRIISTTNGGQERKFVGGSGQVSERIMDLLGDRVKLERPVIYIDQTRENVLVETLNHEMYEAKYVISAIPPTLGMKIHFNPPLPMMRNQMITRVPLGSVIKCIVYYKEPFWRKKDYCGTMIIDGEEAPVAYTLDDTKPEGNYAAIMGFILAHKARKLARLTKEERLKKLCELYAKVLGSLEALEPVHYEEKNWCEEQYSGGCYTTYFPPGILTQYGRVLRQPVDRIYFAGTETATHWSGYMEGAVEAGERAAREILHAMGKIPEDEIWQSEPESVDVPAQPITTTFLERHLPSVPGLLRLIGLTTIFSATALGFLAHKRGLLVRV
# Outline: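 Human MAO-B, diluted 1:200 in 0.05 M sodium phosphate pH 7.4, was pre-incubated with compound for 30 min. It was then mixed 1:1 with working buffer holding 400 μM Amplex Red, 2 U/ml HRP and 2 mM benzylamine (working-buffer levels). Fluorescence (Ex 563/Em 587 nm) was read over 30 min.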
Compound,"Concentration of dopamine compared to a control group %, 1 hr [1]","Concentration of dopamine compared to a control group %, 3 hr [1]",response vs control in vivo at 10 mg/kg (MPTP-induced mouse model),inhibition at 0.01 µM [2],inhibition at 0.01 µM ([2]; treatment concentration 10 nM),Mobility (%) (MPTP-induced mouse model),Inhibitory effects (%) on the activity of MAO-B ([2]; treatment concentration 10 nM)
"NC(=O)OCc1cc(-c2ccc(NCc3ccccc3)cc2)no1 [Example 74, Carbamic acid 3-(4-benzylamino-phenyl)-isoxazol-5-ylmethyl ester]",153.7%,74.7%,96.9%,84.5%,,,
"NC(=O)OCc1cc(-c2ccc(OCc3c(F)cccc3F)cc2)no1 [Example 14, carbamic acid 3-[4-(2,6-difluoro-benzyloxy)-phenyl]-isoxazol-5-ylmethyl ester]",,,75.3%,,96%,,
"c1ccc(COc2ccc(-c3cc(CN4CCCC4)on3)cc2)cc1 [Example 148, 3-(4-benzyloxy-phenyl)-5-pyrrolidin-1-ylmethyl-isoxazole]",,,95.9%,,79%,,
"NC(=O)OCc1cc(-c2ccc(OCc3ccccc3F)cc2)no1 [Example 11, carbamic acid 3-[4-(2-fluoro-benzyloxy)-phenyl]-isoxazol-5-ylmethyl ester]",,,82.2%,,101%,,
"NC(=O)OCc1cc(-c2ccc(OCc3cccnc3)cc2)no1 [Example 66, Carbamic acid 3-[4-(pyridin-3-ylmethoxy)-phenyl]-isoxazol-5-ylmethyl ester]",,,74.9%,87.3%,,,
"Fc1cccc(COc2ccc(-c3cc(Cn4ccnc4)on3)cc2)c1 [Example 142, 3-[4-(3-fluoro-benzyloxy)-phenyl]-5-imidazol-1-ylmethyl-isoxazole]",174.5%,65.5%,101%,,89.5%,,
"CCCCOc1ccc(-c2cc(COC(N)=O)on2)cc1 [Example 43, carbamic acid 3-(4-butoxy-phenyl)-isoxazol-5-ylmethyl ester]",,,71%,96.8%,,,
"NC(=O)OCc1cc(-c2ccc(OCSC(F)(F)F)cc2)no1 [Example 58, carbamic acid 3-(4-trifluoromethylsulfanylmethoxy-phenyl)-isoxazol-5-ylmethyl ester]",,,98.9%,88.1%,,,
[carbamic acid 3-(4-methylsulfanylmethoxy-phenyl)-isoxazol-5-ylmethyl ethyl ester [Example 48],,,,,,74.6%,48.4%
"NC(=O)OCc1cc(-c2ccc(OCc3ccccc3)cc2)ns1 [Example 3, carbamic acid 3-(4-benzyloxy-phenyl)-isothiazol-5-ylmethyl ester]",173.43%,39.3%,70.3%,95.2%,,,
"NC(=O)OCc1cc(-c2ccc(NCc3cccs3)cc2)no1 [Example 110, carbamic acid 3-{4-[(thiophen-2-ylmethyl)-amino]-phenyl}-isoxazol-5-ylmethyl ester]",,,80.7%,80.8%,,,
"Cc1cccc(CNc2ccc(-c3cc(COC(N)=O)on3)cc2)c1 [Example 101, Carbamic acid 3-[4-(3-methyl-benzylamino)-phenyl]-isoxazol-5-ylmethyl ester]",,,78.3%,,80.5%,,
"COc1ccccc1CNc1ccc(-c2cc(COC(N)=O)on2)cc1 [Example 104, Carbamic acid 3-[4-(2-methoxy-benzylamino)-phenyl]-isoxazol-5-ylmethyl ester]",,,82%,,89.1%,,
"NC(=O)OCc1cc(-c2ccc(NCc3ccoc3)cc2)no1 [Example 111, carbamic acid 3-{4-[(furan-3-ylmethyl)-amino]-phenyl}-isoxazol-5-ylmethyl ester]",,,78.8%,69%,,,
"Cc1noc(C)c1COc1ccc(-c2cc(COC(N)=O)on2)cc1 [Example 72, carbamic acid 3-[4-(3,5-dimethyl-isoxazol-4-ylmethoxy)-phenyl]-isoxazol-5-ylmethyl ester]",,,91.4%,,87.9%,,
"NC(=O)OCc1cc(-c2ccc(NCc3c(F)cccc3F)cc2)no1 [Example 79, Carbamic acid 3-[4-(2,6-difluoro-benzylamino)-phenyl]-isoxazol-5-ylmethyl ester]",87.6%,115.2%,99.4%,,84.6%,,
"NC(=O)OCc1cc(-c2ccc(NCc3ccc(F)c(F)c3)cc2)no1 [Example 84, Carbamic acid 3-[4-(3,4-difluoro-benzylamino)-phenyl]-isoxazol-5-ylmethyl ester]",153.7%,144.3%,97.7%,,88.5%,,
"NC(=O)OCc1cc(-c2ccc(NCc3ccc(F)cc3F)cc2)no1 [Example 81, Carbamic acid 3-[4-(2,4-difluoro-benzylamino)-phenyl]-isoxazol-5-ylmethyl ester]",,,72.6%,,91.4%,,
